# Measured values taken from PubChem BioAssay (NCI).
#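 Step 1: Grow cells in 96-well plates. Step 2: Expose to compound for 48 hours at 5 concentrations. Step 3: Interpolate endpoints linearly; if unreached, use highest concentration. TGI: concentration producing complete growth inhibition.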
# Experiments:
# Experiment in all cases: inhibition of tumour cell growth, NCI panel, 48 h
# 786-0 renal = tested on: 786-0 renal
# A498 renal = tested on: A498 renal
# A549 NSCLC = tested on: A549 NSCLC
# ACHN renal = tested on: ACHN renal
# BT-549 breast = tested on: BT-549 breast
# CAKI-1 renal = tested on: CAKI-1 renal
# CCRF-CEM leukemia = tested on: CCRF-CEM leukemia
# COLO 205 colon = tested on: COLO 205 colon
# DU-145 prostate = tested on: DU-145 prostate
# EKVX NSCLC = tested on: EKVX NSCLC
# HCT-116 colon = tested on: HCT-116 colon
# HCT-15 colon = tested on: HCT-15 colon
# HL-60(TB) leukemia = tested on: HL-60(TB) leukemia
# HOP-62 NSCLC = tested on: HOP-62 NSCLC
# HOP-92 NSCLC = tested on: HOP-92 NSCLC
# HS 578T breast = tested on: HS 578T breast
# HT29 colon = tested on: HT29 colon
# IGROV1 ovarian = tested on: IGROV1 ovarian
# K-562 leukemia = tested on: K-562 leukemia
# KM12 colon = tested on: KM12 colon
# LOX IMVI melanoma = tested on: LOX IMVI melanoma
# M14 melanoma = tested on: M14 melanoma
# MALME-3M melanoma = tested on: MALME-3M melanoma
# MCF7 breast = tested on: MCF7 breast
# MDA-MB-231 breast = tested on: MDA-MB-231 breast
# MDA-MB-435 = tested on: MDA-MB-435
# MDA-N = tested on: MDA-N
# MOLT-4 leukemia = tested on: MOLT-4 leukemia
# NCI-H226 lung = tested on: NCI-H226 lung
# NCI-H23 lung = tested on: NCI-H23 lung
# NCI-H522 lung = tested on: NCI-H522 lung
# NCI/ADR-RES ovarian = tested on: NCI/ADR-RES ovarian
# OVCAR-3 ovarian = tested on: OVCAR-3 ovarian
# OVCAR-4 ovarian = tested on: OVCAR-4 ovarian
# OVCAR-5 ovarian = tested on: OVCAR-5 ovarian
# OVCAR-8 ovarian = tested on: OVCAR-8 ovarian
# PC-3 prostate = tested on: PC-3 prostate
# RPMI-8226 leukemia = tested on: RPMI-8226 leukemia
# RXF 393 renal = tested on: RXF 393 renal
# SF-268 CNS = tested on: SF-268 CNS
# SF-295 CNS = tested on: SF-295 CNS
# SF-539 CNS = tested on: SF-539 CNS
# SK-MEL-2 melanoma = tested on: SK-MEL-2 melanoma
# SK-MEL-28 melanoma = tested on: SK-MEL-28 melanoma
# SK-MEL-5 melanoma = tested on: SK-MEL-5 melanoma
# SK-OV-3 ovarian = tested on: SK-OV-3 ovarian
# SN12C renal = tested on: SN12C renal
# SNB-19 CNS = tested on: SNB-19 CNS
# SNB-75 CNS = tested on: SNB-75 CNS
# SR leukemia = tested on: SR leukemia
# SW-620 colon = tested on: SW-620 colon
# T-47D breast = tested on: T-47D breast
# TK-10 renal = tested on: TK-10 renal
# U251 CNS = tested on: U251 CNS
# UACC-257 melanoma = tested on: UACC-257 melanoma
# UACC-62 melanoma = tested on: UACC-62 melanoma
# UO-31 renal = tested on: UO-31 renal
# HCC-2998 colon = tested on: HCC-2998 colon
# NCI-H460 lung = tested on: NCI-H460 lung
compound,measurement,setting,value
NCCNS(=O)(=O)c1ccc(N)cc1,TGI,786-0 renal,> 100 µM
same,TGI,A498 renal,> 100 µM
same,TGI,A549 NSCLC,> 100 µM
same,TGI,ACHN renal,> 100 µM
same,TGI,BT-549 breast,> 100 µM
same,TGI,CAKI-1 renal,> 100 µM
same,TGI,CCRF-CEM leukemia,> 100 µM
same,TGI,COLO 205 colon,> 100 µM
same,TGI,DU-145 prostate,> 100 µM
same,TGI,EKVX NSCLC,> 100 µM
same,TGI,HCT-116 colon,> 100 µM
same,TGI,HCT-15 colon,> 100 µM
same,TGI,HL-60(TB) leukemia,41.5 µM
same,TGI,HOP-62 NSCLC,> 100 µM
same,TGI,HOP-92 NSCLC,> 100 µM
same,TGI,HS 578T breast,> 100 µM
same,TGI,HT29 colon,> 100 µM
same,TGI,IGROV1 ovarian,> 100 µM
same,TGI,K-562 leukemia,> 100 µM
same,TGI,KM12 colon,> 100 µM
same,TGI,LOX IMVI melanoma,> 100 µM
same,TGI,M14 melanoma,> 100 µM
same,TGI,MALME-3M melanoma,> 100 µM
same,TGI,MCF7 breast,> 100 µM
same,TGI,MDA-MB-231 breast,> 100 µM
same,TGI,MDA-MB-435,> 100 µM
same,TGI,MDA-N,> 100 µM
same,TGI,MOLT-4 leukemia,> 100 µM
same,TGI,NCI-H226 lung,> 100 µM
same,TGI,NCI-H23 lung,> 100 µM
same,TGI,NCI-H522 lung,> 100 µM
same,TGI,NCI/ADR-RES ovarian,> 100 µM
same,TGI,OVCAR-3 ovarian,> 100 µM
same,TGI,OVCAR-4 ovarian,> 100 µM
same,TGI,OVCAR-5 ovarian,> 100 µM
same,TGI,OVCAR-8 ovarian,> 100 µM
same,TGI,PC-3 prostate,> 100 µM
same,TGI,RPMI-8226 leukemia,> 100 µM
same,TGI,RXF 393 renal,> 100 µM
same,TGI,SF-268 CNS,> 100 µM
same,TGI,SF-295 CNS,> 100 µM
same,TGI,SF-539 CNS,> 100 µM
same,TGI,SK-MEL-2 melanoma,> 100 µM
same,TGI,SK-MEL-28 melanoma,> 100 µM
same,TGI,SK-MEL-5 melanoma,> 100 µM
same,TGI,SK-OV-3 ovarian,> 100 µM
same,TGI,SN12C renal,> 100 µM
same,TGI,SNB-19 CNS,> 100 µM
same,TGI,SNB-75 CNS,> 100 µM
same,TGI,SR leukemia,> 100 µM
same,TGI,SW-620 colon,> 100 µM
same,TGI,T-47D breast,> 100 µM
same,TGI,TK-10 renal,> 100 µM
same,TGI,U251 CNS,> 100 µM
same,TGI,UACC-257 melanoma,> 100 µM
same,TGI,UACC-62 melanoma,> 100 µM
same,TGI,UO-31 renal,> 100 µM
Nc1nc(Cl)nc(NCc2ccccc2)n1,TGI,786-0 renal,> 100 µM
same,TGI,A498 renal,> 100 µM
same,TGI,A549 NSCLC,> 100 µM
same,TGI,ACHN renal,> 100 µM
same,TGI,BT-549 breast,> 100 µM
same,TGI,CAKI-1 renal,> 100 µM
same,TGI,CCRF-CEM leukemia,> 100 µM
same,TGI,COLO 205 colon,> 100 µM
same,TGI,DU-145 prostate,> 100 µM
same,TGI,EKVX NSCLC,> 100 µM
same,TGI,HCC-2998 colon,> 100 µM
same,TGI,HCT-116 colon,> 100 µM
same,TGI,HCT-15 colon,> 100 µM
same,TGI,HL-60(TB) leukemia,> 100 µM
same,TGI,HOP-62 NSCLC,> 100 µM
same,TGI,HOP-92 NSCLC,> 100 µM
same,TGI,HS 578T breast,> 100 µM
same,TGI,HT29 colon,> 100 µM
same,TGI,IGROV1 ovarian,> 100 µM
same,TGI,K-562 leukemia,> 100 µM
same,TGI,KM12 colon,> 100 µM
same,TGI,LOX IMVI melanoma,> 100 µM
same,TGI,M14 melanoma,> 100 µM
same,TGI,MALME-3M melanoma,> 100 µM
same,TGI,MCF7 breast,> 100 µM
same,TGI,MDA-MB-231 breast,> 100 µM
same,TGI,MDA-MB-435,> 100 µM
same,TGI,MDA-N,> 100 µM
same,TGI,MOLT-4 leukemia,> 100 µM
same,TGI,NCI-H226 lung,> 100 µM
same,TGI,NCI-H23 lung,> 100 µM
same,TGI,NCI-H460 lung,> 100 µM
same,TGI,NCI/ADR-RES ovarian,> 100 µM
same,TGI,OVCAR-3 ovarian,> 100 µM
same,TGI,OVCAR-4 ovarian,> 100 µM
same,TGI,OVCAR-5 ovarian,> 100 µM
same,TGI,OVCAR-8 ovarian,> 100 µM
same,TGI,PC-3 prostate,> 100 µM
same,TGI,RPMI-8226 leukemia,> 100 µM
same,TGI,RXF 393 renal,> 100 µM
same,TGI,SF-268 CNS,> 100 µM
same,TGI,SF-295 CNS,> 100 µM
same,TGI,SF-539 CNS,> 100 µM
same,TGI,SK-MEL-2 melanoma,> 100 µM
same,TGI,SK-MEL-28 melanoma,> 100 µM
same,TGI,SK-MEL-5 melanoma,> 100 µM
same,TGI,SK-OV-3 ovarian,> 100 µM
same,TGI,SN12C renal,> 100 µM
same,TGI,SNB-19 CNS,> 100 µM
same,TGI,SNB-75 CNS,> 100 µM
same,TGI,SR leukemia,> 100 µM
same,TGI,SW-620 colon,> 100 µM
same,TGI,T-47D breast,> 100 µM
same,TGI,TK-10 renal,> 100 µM
same,TGI,U251 CNS,> 100 µM
same,TGI,UACC-257 melanoma,> 100 µM
same,TGI,UACC-62 melanoma,> 100 µM
